Here are results for seven compounds from ChEMBL document CHEMBL3804817, “Development of novel bis-naphthalimide derivatives and their anticancer properties” (Medchemcomm, 2016).

For orientation: IC50 means the concentration that gives 50% inhibition. A high value points to lower potency. The term ΔTm denotes the shift of the melting midpoint relative to a reference.

For one data set, the system named is A549. Description: Cytotoxicity against human A549 cells after 48 hrs by MTT assay. The data set is classed as functional, cell-based. The note with it: A549, 48 h. (Tetrazolium assays rely on reduction of a dye to a coloured formazan, in cell work by metabolically active cells.)
A further data set relates to MCF7. Description: Cytotoxicity against human MCF7 cells after 48 hrs by MTT assay. The note with it: MCF7, 48 h. The data set is classed as functional, cell-based.
A short description of data set [1]: Cytotoxicity against human SGC7901 cells after 48 hrs by MTT assay. Conditions: SGC-7901, 48 h. It is filed as functional, cell-based.
Data set [2] relates to HeLa. Description: Cytotoxicity against human HeLa cells after 48 hrs by MTT assay. The data set is classed as functional, cell-based.
The test system of data set [3] is HeLa. Description: Cell cycle arrest in human HeLa cells assessed as increase in accumulation at S phase by flow cytometry. The data set is classed as functional, cell-based. (In general: Flow cytometry measures light scatter and fluorescence of single cells or particles in a stream.)
For data set [4], the system named is HeLa. The data set can be described thus: Cell cycle arrest in human HeLa cells assessed as decrease in accumulation at G0/G1 phase phase by flow cytometry. It is filed as functional, cell-based.
Data set [5] deals with Calf thymus DNA. Description: Induction of DNA intercalation of calf thymus DNA assessed as increase in fluorescence intensity by fluorescence spectrophotometry. It is filed as nucleic-acid assay. The note with it: Bos taurus.
The subject of data set [6] is HeLa. The data set can be described thus: Induction of apoptosis in human HeLa cells assessed as late apoptotic cells at 1 uM by Annexin V-FITC/propidium iodide staining-based flow cytometry (reference value: 0.02%). It is filed as functional.
For data set [7], the system named is Calf thymus DNA. The data set can be described thus: Induction of DNA intercalation of calf thymus DNA assessed as increase in intensity of negative band at 245 nm at 2 x 10^-5 M by circular dichroism spectroscopy. It is filed as nucleic-acid assay. The note with it: Bos taurus. (In general: CD spectra are sensitive to the conformation of chiral molecules.)
Data set [8] relates to Mus musculus. The data set can be described thus: Toxicity in Balb/c mouse assessed as decrease in number of WBC at 5 to 20 mg/kg, iv measured after 24 to 96 hrs. It is filed as organism-based. Conditions: in vivo.
Data set [9] deals with Calf thymus DNA. The data set can be described thus: Induction of DNA intercalation of calf thymus DNA assessed as binding constant by fluorescence spectrophotometry. It is filed as nucleic-acid assay. Conditions: Bos taurus.
Data set [10] relates to HeLa. Description: Induction of apoptosis in human HeLa cells assessed as early apoptotic cells at 1 uM by Annexin V-FITC/propidium iodide staining-based flow cytometry (reference value: 0.05%). It is filed as functional.
Data set [11] has as its system Calf thymus DNA. Description: Induction of DNA intercalation of calf thymus DNA at 1 x 10^-5 M measured at 530 nm by fluorescence spectrophotometry. The data set is classed as nucleic-acid assay. Conditions: Bos taurus.
Data set [12] concerns HeLa. Description: Induction of apoptosis in human HeLa cells assessed as late apoptotic cells at 10 uM by Annexin V-FITC/propidium iodide staining-based flow cytometry (reference value: 0.02%). The data set is classed as functional.
The subject of data set [13] is HeLa. The data set can be described thus: Cell cycle arrest in human HeLa cells assessed as accumulation at S phase at 1 to 10 uM after 48 hrs by flow cytometry. It is filed as functional.
Data set [14] concerns HeLa. Description: Cell cycle arrest in human HeLa cells assessed as accumulation at G2/M phase at 1 to 10 uM after 48 hrs by flow cytometry. The data set is classed as functional.
Data set [15] has as its system Calf thymus DNA. Description: Induction of DNA intercalation of calf thymus DNA measured at 320 to 520 nm at 2 x 10^-5 M by circular dichroism spectroscopy. It is filed as nucleic-acid assay. The note with it: Bos taurus.
In data set [16] the test system is HeLa. The data set can be described thus: Cell cycle arrest in human HeLa cells assessed as accumulation at G1/G0 phase at 1 to 10 uM after 48 hrs by flow cytometry. It is filed as functional.
The test system of data set [17] is HeLa. Description: Induction of apoptosis in human HeLa cells assessed as early apoptotic cells at 10 uM by Annexin V-FITC/propidium iodide staining-based flow cytometry (reference value: 0.05%). The data set is classed as functional.
Data set [18] concerns Mus musculus. Description: Cardiotoxicity in Balb/c mouse assessed as increase in AST level at 5 to 20 mg/kg, iv measured after 24 hrs. Conditions: in vivo. It is filed as toxicity, organism-based.
In data set [19] the test system is HeLa. Description: Induction of apoptosis in human HeLa cells assessed as early apoptotic cells at 5 uM by Annexin V-FITC/propidium iodide staining-based flow cytometry (reference value: 0.05%). The data set is classed as functional.
Data set [20] deals with HeLa. Description: Induction of apoptosis in human HeLa cells assessed as late apoptotic cells at 5 uM by Annexin V-FITC/propidium iodide staining-based flow cytometry (reference value: 0.02%). It is filed as functional.
Data set [21] relates to Mus musculus. Description: Toxicity in Balb/c mouse assessed as increase in number of platelets at 5 to 20 mg/kg, iv measured after 24 to 96 hrs. It is filed as organism-based. The note with it: in vivo.
Data set [22] deals with Mus musculus. Description: Toxicity in Balb/c mouse assessed as change in RBC at 5 to 20 mg/kg, iv measured after 24 to 96 hrs. Conditions: in vivo. The data set is classed as organism-based.
The test system of data set [23] is Mus musculus. Description: Cardiotoxicity in Balb/c mouse assessed as increase in CK level at 5 to 20 mg/kg, iv measured after 24 hrs. The note with it: in vivo. The data set is classed as toxicity, organism-based.
Data set [24] relates to Calf thymus DNA. Description: Induction of DNA intercalation of calf thymus DNA assessed as reduction in intensity of absorption using 0 to 6 x 10^-5 M calf thymus DNA by UV spectrophotometry. The data set is classed as nucleic-acid assay. The note with it: Bos taurus.
Data set [25] has as its system HeLa. Description: Induction of lysosome membrane permeabilization in human HeLa cells by […] (reference value: 1.69%). It is filed as functional.
Data set [26] has as its system Calf thymus DNA. The data set can be described thus: Induction of DNA intercalation of calf thymus DNA assessed as increase in intensity of positive band at 275 nm at 2 x 10^-5 M by circular dichroism spectroscopy. It is filed as nucleic-acid assay. The note with it: Bos taurus.
Data set [27] concerns Calf thymus DNA. Description: Induction of DNA intercalation of calf thymus DNA assessed as change in melting temperature at 5 x 10^-6 M by thermal denaturation analysis. Conditions: Bos taurus. It is filed as nucleic-acid assay.
Data set [28] relates to Calf thymus DNA. Description: Induction of DNA intercalation of calf thymus DNA assessed as increase in intensity of absorption using > 6 x 10^-5 M calf thymus DNA by UV spectrophotometry. The data set is classed as nucleic-acid assay. Conditions: Bos taurus.
Data set [29] deals with Calf thymus DNA. Description: Induction of DNA intercalation of calf thymus DNA assessed as hypsochromic shift by fluorescence spectrophotometry (reference value: 530 nanometer). The data set is classed as nucleic-acid assay. Conditions: Bos taurus.
The subject of data set [30] is HeLa. Description: Induction of apoptosis in human HeLa cells assessed as late apoptotic cells at 2.5 uM by Annexin V-FITC/propidium iodide staining-based flow cytometry (reference value: 0.02%). It is filed as functional.
Data set [31] deals with HeLa. Description: Induction of apoptosis in human HeLa cells assessed as early apoptotic cells at 2.5 uM by Annexin V-FITC/propidium iodide staining-based flow cytometry (reference value: 0.05%). It is filed as functional.
Data set [32] relates to HeLa. The data set can be described thus: Binding affinity to DNA in human HeLa cells at 2 uM after 12 hrs by confocal microscopy. The data set is classed as cell-based.
The test system of data set [33] is Mus musculus. Description: Cardiotoxicity in Balb/c mouse assessed as increase in LDH level at 5 to 20 mg/kg, iv measured after 24 hrs. It is filed as toxicity, organism-based. Conditions: in vivo.

Each structure is given as a SMILES string. The source made the active and inactive calls. The rule behind the calls is not given here.

Consider `CN(CCCN1C(=O)c2cccc3c(N4CC[C@H](O)C4)ccc(c23)C1=O)CCCN1C(=O)c2cccc3c(N4CC[C@H](O)C4)ccc(c23)C1=O`, for which the IC50 stood at 0.6 µM in the data set on A549, 14 µM in the data set with MCF7, 2.47 µM in [1] and 1.05 µM with HeLa [2].
Take `CN(C)CCN1C(=O)c2cccc3cc(N)cc(c23)C1=O` [AMONAFIDE]: the IC50 in the data set with A549 is 1.59 µM; in the data set on MCF7, 8.02 µM; in data set [1], 5.32 µM; with HeLa [2] it was 4.36 µM. Besides, the Activity result with HeLa [3] was “Dose-dependent effect”. In the data set with HeLa [4], the inhibition result was “Dose-dependent effect”.
Consider `CN(CCCN1C(=O)c2cccc3c(N4CCN(CCO)CC4)ccc(c23)C1=O)CCCN1C(=O)c2cccc3c(N4CCN(CCO)CC4)ccc(c23)C1=O`, for which the outcome in the data set on Calf thymus DNA [5], with Calf thymus DNA [7], in the data set with Calf thymus DNA [11], in the data set with Calf thymus DNA [15], in the data set on Calf thymus DNA [24] and in the data set on Calf thymus DNA [26] was Active. Further, the outcome in the data set with Calf thymus DNA [28] and in the data set on HeLa [32] was Active. The Activity with HeLa [6] is recorded as 2.09%; with Mus musculus [8], “Non-toxic”; in the data set with HeLa [10], 11.72%; in the data set on HeLa [12] it was 51.22%; in the data set on HeLa [13], 29.79%; in the data set on HeLa [14], 3.1%. Further, the Activity with HeLa [16] is reported as 57.79%; in the data set on HeLa [17], 41.51%; with Mus musculus [18], “Non-toxic”; in the data set with HeLa [19], 16.41%; with HeLa [20], 10.4%; with Mus musculus [21] it was “Non-toxic”. Besides, the Activity result with Mus musculus [22] was “Non-toxic”; in the data set with Mus musculus [23], “Non-toxic”; in the data set with HeLa [25], 99.65%; with Calf thymus DNA [29], 520 nm; with HeLa [30], 3.21%; with HeLa [31], 15.9%. Also, in the data set on Mus musculus [33], the Activity result is “Non-toxic”. Further, the K with Calf thymus DNA [9] is 1.2 ×10⁵ /M. Besides, the IC50 came out at 1.21 µM with A549, 2.94 µM with MCF7, 0.88 µM in data set [1] and 2.31 µM in the data set on HeLa [2]. For the same compound, the ΔTm in the data set on Calf thymus DNA [27] amounted to 8 °C.
On to `CN(CCCN1C(=O)c2cccc3c(N4CC[C@@H](O)C4)ccc(c23)C1=O)CCCN1C(=O)c2cccc3c(N4CC[C@@H](O)C4)ccc(c23)C1=O`, for which the IC50 in the data set with A549 came out at 1.59 µM; in the data set on MCF7 it was 32.9 µM; in [1] it was 23.2 µM; in the data set on HeLa [2], 3.65 µM.
Consider `CN(CCCN1C(=O)c2cccc3c(N4CCC[C@@H]4CO)ccc(c23)C1=O)CCCN1C(=O)c2cccc3c(N4CCC[C@@H]4CO)ccc(c23)C1=O`, for which the IC50 was 4.71 µM in the data set with A549, above 50 µM in the data set with MCF7, 4.46 µM in data set [1] and above 50 µM in the data set on HeLa [2].
With `CN(CCCN1C(=O)c2cccc3c(N4CCC[C@H]4CO)ccc(c23)C1=O)CCCN1C(=O)c2cccc3c(N4CCC[C@H]4CO)ccc(c23)C1=O`, the IC50 was 3.05 µM in the data set with A549, 9.07 µM in the data set with MCF7, 2.3 µM in data set [1] and above 50 µM with HeLa [2].
As to `CN(CCCN1C(=O)c2cccc3c(N4CCC(CCO)CC4)ccc(c23)C1=O)CCCN1C(=O)c2cccc3c(N4CCC(CCO)CC4)ccc(c23)C1=O`, the IC50 is 3.2 µM in the data set with A549, above 50 µM in the data set on MCF7, 3.63 µM in data set [1] and above 50 µM in the data set with HeLa [2].
